# Assay results from patent US20260184663A1, “INDENE COMPOUNDS, PHARMACEUTICAL COMPOSITIONS THEREOF, AND THEIR THERAPEUTIC APPLICATIONS” (NucMito Pharmaceuticals co. Ltd., priority 2022, published 2026).
# Legend:
# Format in all cases: cell-based
# [1] = tested on: MDA-MB-231 (breast cancer); test: Antiproliferative activity (CCK-8 cell viability), MDA-MB-231; conditions: Homo sapiens, 72 h, read-out: Antiproliferative activity in cancerous cells, MDA-MB-231 (inhibition of cell growth); for inhibition at 3.3 µM: Compound concentration: 3.3 μM; for inhibition at 10 µM: Compound concentration: 10 μM
# In short: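 Growth inhibition of human MDA-MB-231 breast cancer cells was assessed with a Cell Counting Kit-8. Cells cultured in DMEM plus 10% FBS were seeded at 2,000-5,000 cells/well, treated after attachment, and kept 72 h at 37° C. CCK-8 solution (10 μL) was added for 4 h, and absorbance at 450 nm was compared with DMSO-treated controls.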
# [2] = tested on: A549 (lung adenocarcinoma); test: Antiproliferative activity (CCK-8 cell viability), A549; conditions: Homo sapiens, 72 h, read-out: Antiproliferative activity in cancerous cells, A549 (inhibition of cell growth); for inhibition at 3.3 µM: Compound concentration: 3.3 μM; for inhibition at 10 µM: Compound concentration: 10 μM
# In short: (§1)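 Growth inhibition graded in bands from percent viability against DMSO vehicle, read as CCK-8 absorbance at 450 nm. Compound tested at 3.3, 10 or 30 μM for 72 h, 37 °C; media contained 10% FBS: DMEM for HepG2/SW480, MEM for HeLa, F-12K for A549.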
# SW480 (colon cancer) = test: Antiproliferative activity (CCK-8 cell viability), SW480; conditions: Homo sapiens, 72 h, read-out: Antiproliferative activity in cancerous cells, SW480 (inhibition of cell growth); for inhibition at 3.3 µM: Compound concentration: 3.3 μM; for inhibition at 10 µM: Compound concentration: 10 μM
# In short: as §1
# HepG2 (liver cancer) = test: Antiproliferative activity (CCK-8 cell viability), HepG2; conditions: Homo sapiens, 72 h, read-out: Antiproliferative activity in cancerous cells, HepG2 (inhibition of cell growth); for inhibition at 3.3 µM: Compound concentration: 3.3 μM; for inhibition at 10 µM: Compound concentration: 10 μM
# In short: as §1
# HeLa (cervical cancer) = test: Antiproliferative activity (CCK-8 cell viability), HeLa; conditions: Homo sapiens, 72 h, read-out: Antiproliferative activity in cancerous cells, HELA (inhibition of cell growth); for inhibition at 3.3 µM: Compound concentration: 3.3 μM; for inhibition at 10 µM: Compound concentration: 10 μM
# In short: as §1
# [3] = tested on: A431 (epidermoid carcinoma); test: Antiproliferative activity (CCK-8 cell viability), A431; conditions: Homo sapiens, 72 h, read-out: Antiproliferative activity in cancerous cells, A431 (inhibition of cell growth); for inhibition at 3.3 µM: A-431, Compound concentration: 3.3 μM; for inhibition at 10 µM: A-431, Compound concentration: 10 μM
# In short: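 This growth inhibition assay used A431 cells maintained in Dulbecco's modified Eagle's medium plus 10% fetal bovine serum. Cells were seeded in 96-well plates, treated with compound for 72 h at 37° C., and then given 10 μL CCK-8 solution. After a further 4 h, absorbance was read at 450 nm.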
# [4] = tested on: B16F10 (malignant melanoma); test: Antiproliferative activity (CCK-8 cell viability), B16F10; conditions: Mus musculus, 72 h, read-out: Antiproliferative activity in cancerous cells, B16F10 (inhibition of cell growth); for inhibition at 3.3 µM: B16-F10, Compound concentration: 3.3 μM; for inhibition at 10 µM: B16-F10, Compound concentration: 10 μM
# In short: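 Cell growth inhibition was measured in B16F10 malignant melanoma cells with a Cell Counting Kit-8 viability assay. Cells were maintained in DMEM plus 10% fetal bovine serum, seeded at 2,000-5,000 cells/well in 96-well plates, and treated for 72 h at 37° C. Viability was expressed relative to DMSO-treated vehicle control wells.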
SMILES,inhibition at 3.3 µM [1],inhibition at 10 µM [1],inhibition at 3.3 µM [2],inhibition at 10 µM [2],inhibition at 3.3 µM (SW480 (colon cancer)),inhibition at 10 µM (SW480 (colon cancer)),inhibition at 3.3 µM (HepG2 (liver cancer)),inhibition at 10 µM (HepG2 (liver cancer)),inhibition at 3.3 µM (HeLa (cervical cancer)),inhibition at 10 µM (HeLa (cervical cancer)),inhibition at 3.3 µM [3],inhibition at 10 µM [3],inhibition at 3.3 µM [4],inhibition at 10 µM [4],also measured
"COc1cc(Oc2ccc(F)cc2)ccc1/C=C1/C(C)=C(CC(=O)O)c2cc(F)ccc21 [C51, (Z)-2-(5-Fluoro-1-(4-(4-fluorophenoxy)-2-methoxybenzylidene)-2-methyl-1H-inden-3-yl)acetic acid]",30 to 50%,≥ 50%,30 to 50%,30 to 50%,30 to 50%,≥ 50%,< 30%,≥ 50%,30 to 50%,≥ 50%,≥ 50%,≥ 50%,≥ 50%,≥ 50%,
"COc1ccc(CCCc2ccc(/C=C3/C(C)=C(CC(=O)O)c4cc(F)ccc43)cc2)cc1 [B126, (Z)-2-(5-Fluoro-1-(4-(3-(4-methoxyphenyl)propyl)benzylidene)-2-methyl-1H-inden-3-yl)acetic acid]",≥ 50%,≥ 50%,< 30%,≥ 50%,< 30%,≥ 50%,30 to 50%,≥ 50%,30 to 50%,≥ 50%,< 30%,≥ 50%,< 30%,≥ 50%,
"COc1ccc(/C=C2/C(C)=C(CC(=O)O)c3cc(F)ccc32)cc1Cl [D12, (Z)-2-(1-(3-Chloro-4-methoxybenzylidene)-5-fluoro-2-methyl-1H-inden-3-yl)acetic acid]",< 30%,30 to 50%,< 30%,< 30%,< 30%,< 30%,< 30%,30 to 50%,< 30%,30 to 50%,≥ 50%,≥ 50%,< 30%,30 to 50%,"inhibition at 30 µM ([1]; Compound concentration: 30 μM): ≥ 50%; inhibition at 30 µM ([2]; Compound concentration: 30 μM): ≥ 50%; inhibition at 30 µM (SW480 (colon cancer); Compound concentration: 30 μM): ≥ 50%; inhibition at 30 µM (HepG2 (liver cancer); Compound concentration: 30 μM): ≥ 50%; inhibition at 30 µM (HeLa (cervical cancer); Compound concentration: 30 μM): ≥ 50%; inhibition at 30 µM ([3]; A-431, Compound concentration: 30 μM): ≥ 50%; inhibition at 30 µM ([4]; B16-F10, Compound concentration: 30 μM): ≥ 50%"
"CC1=C(CC(=O)O)c2cc(I)ccc2/C1=C\c1ccc(Oc2ccc(F)cc2)cc1 [C28, (Z)-2-(1-(4-(4-Fluorophenoxy)benzylidene)-5-iodo-2-methyl-1H-inden-3-yl)-acetic acid]",< 30%,≥ 50%,30 to 50%,≥ 50%,< 30%,≥ 50%,30 to 50%,≥ 50%,30 to 50%,≥ 50%,< 30%,≥ 50%,30 to 50%,≥ 50%,
